These results are taken from patent US8017162B2, “Anti-inflammatory agent” (Oryza Oil & Fat Chemical Co., Ltd., priority 2005, dated 2011).

The test system of experiment [1] is RAW264.7 cells. As to the kind of experiment: PGE2 produced by LPS stimulation in RAW264.7 cells. The experiment is classed as cell-based, mouse. Particulars: 0.1 microgram/mL, single substance, P<0.01 vs LPS group. The method, then: Suspend mouse-derived macrophage-like cells RAW264.7 in the culture medium “Minimum Essential Medium (MEM)” containing a 0.1 mM nonessential amino acid mixture, 10% fetal calf serum (FCS), penicillin (100 units/mL), and streptomycin (100 microgram/mL) in concentration of 1×10^6 cells/mL. Then, the cells were seeded into 48-well plate (200 microliter/well).
In 48 to 72 hours after the cultivation, vacuum the culture medium. Then clean the culture medium thrice with the serum-free culture medium (which contains no FCS). Then, add the serum-free culture medium (170 microliter) to each well.
After that, add the LPS solution (10 microlitre) which was prepared to 200 microgram/mL in the serum-free culture medium, to each well (final concentration 10 microgram/mL). Then, add the serum-free culture medium (10 microliter) to the well of the control group. Add 20 microliter each of the red ginger extract sample solution which was prepared to be the concentrations of […] in the serum-free culture medium, and add indomethacin in concentration of 8.9 microgram/mL (equivalent to 25 microM) to three wells, each. (The final concentrations of the red ginger extract are to be 0.1, 0.3, 1, 3, and 10 microgram/mL, and the final concentration of indomethacin is to be 0.89microgram/mL which is equivalent to 2.5 microM). […]

Experiment [2] deals with RAW264.7 cells. Nature of the experiment: NO production inhibition test (LPS, Griess Method). The experiment is classed as cell-based, mouse. The method, then: A 200 microliter each of the continuously-cultivated RAW264.7 cells (10^6 cells/mL) should be seeded into 48-well plate. After 24 hours, replace the culture medium with a serum-free culture medium. Then, add the LPS (final concentration: 10 microgram/mL) and samples (Examples 1 & 2), and then cultivate for 24 hours. Collect the supernatant (100 microliter) and determine the amount of NO by the Griess Method.

Another experiment deals with NO production. Particulars: concentration of 21.5 to 215 microgram/mL (FIG. 9); cited from earlier work.

Structures are written as SMILES.

In the case of `CCCCC[C@H](O)CC(=O)CCc1ccc(O)c(OC)c1` [Example 6-gingerol, 6-gingerol], the “Inhibition ratio of PGE2 production” value with RAW264.7 cells [1] is 37.8%. In addition, the NO in supernatant with RAW264.7 cells [2] (1 μg/mL, LPS 10 microgram/mL, 24 hours, average ± SD) came out at 3.50 ± 0.26 µM; in the experiment with RAW264.7 cells [2] (3 μg/mL), 3.66 ± 0.33 µM; in the experiment on RAW264.7 cells [2] (10 μg/mL), 3.27 ± 0.26 µM; with RAW264.7 cells [2] (30 μg/mL) it was 3.11 ± 0.22 µM; with RAW264.7 cells [2] (100 μg/mL), 2.81 ± 0.47 µM. Also, the “Inhibition ratio (NO production)” value in the experiment on RAW264.7 cells [2] (30 μg/mL) is reported as “(4.3) %”; with RAW264.7 cells [2] (100 μg/mL), “(17.6) %”.

In the case of `Cl.N[C@H]1C(O)O[C@H](CO)[C@@H](O)[C@@H]1O` (stereo partly drawn) [glucosamine hydrochloride], in the experiment on NO production, the “Inhibitory effect on NO production” value is “has the inhibitory effect on NO production”.
